# Results as given in ChEMBL document CHEMBL6109158, “Discovery of Novel Bifunctional Agents as Potent Androgen Receptor Antagonists and Degraders for the Treatment of Enzalutamide-Resistant Prostate Cancer” (J Med Chem, 2025).
# What was measured:
# [1] = test system: CWR22R; assay: cells; assay type: functional, cell-based; conditions: Homo sapiens, 22Rv1, […]
# Description: Antiproliferative activity against human 22Rv1 cells assessed as inhibition of cell growth incubated for 7 days by celltiter-glo assay
# [2] = test system: LNCaP C4-2; assay: cells; assay type: functional, cell-based; conditions: Homo sapiens
# Description: Antiproliferative activity against human C4-2 cells assessed as inhibition of cell growth incubated for 7 days by celltiter-glo assay
# [3] = cells; assay type: functional, cell-based; conditions: Homo sapiens, Enzalutamide-resistant C4-2B
# [4] = test system: LNCaP; assay: cells; assay type: functional, cell-based; conditions: Homo sapiens
# Description: Antiproliferative activity against human LNCaP cells assessed as inhibition of cell growth incubated for 7 days by celltiter-glo assay
# [5] = in vivo; conditions: male, C57BL/6, mouse, iv, 1 mg/kg
# Description: Half life in male C57BL/6 mouse at 1 mg/kg, iv
# [6] = in vivo; conditions: male, C57BL/6, mouse, iv, 1 mg/kg; remark: listed apart in the source
# Description: Clearance in male C57BL/6 mouse at 1 mg/kg, iv
# [7] = in vivo; conditions: male, C57BL/6, mouse, iv, 1 mg/kg; remark: listed apart in the source
# [8] = in vivo; conditions: male, C57BL/6, mouse, iv, 1 mg/kg; remark: listed apart in the source
# Description: C0 in male C57BL/6 mouse at 1 mg/kg, iv
# [9] = in vivo; conditions: male, C57BL/6, mouse, iv, 1 mg/kg; remark: listed apart in the source
# Description: Volume of distribution at steady state in male C57BL/6 mouse at 1 mg/kg, iv
# [10] = in vivo; conditions: male, C57BL/6, mouse, brain, iv, 1 mg/kg
# Description: Ratio of drug concentration in male C57BL/6 mouse brain to plasma at 1 mg/kg, iv measured after 1 hr
# [11] = in vitro; conditions: mouse, microsomes
# Description: Metabolic stability in mouse liver microsomes assessed as half life
# [12] = in vitro; conditions: mouse, microsomes; remark: listed apart in the source
# [13] = in vitro; conditions: human, microsomes
# [14] = in vitro; conditions: human, microsomes; remark: listed apart in the source
structure (smiles),measurement,setting,value
C[C@](O)(CN1CC2CCC(C1)N2c1ccc(C#N)cn1)C(=O)Nc1ccc(C#N)c(C(F)(F)F)c1,IC50,[1],2.28 µM
CNC(=O)c1ccc(N2C(=S)N(c3cnc(C#N)c(C(F)(F)F)c3)C(=O)C23CCC3)cc1F [APALUTAMIDE],IC50,[1],> 100 µM
C[C@](O)(CN1C[C@@H]2C[C@H]1CN2c1ccc(C#N)cc1)C(=O)Nc1ccc(C#N)c(C(F)(F)F)c1,IC50,[1],10 µM
C[C@](O)(CN1CC2CCC(C1)N2c1ccc(C#N)cc1)C(=O)Nc1ccc(C#N)c(Cl)c1,IC50,[2],1.19 µM
same,IC50,[3],5.23 µM
same,IC50,[4],1.57 µM
same,half-life,[5],244 min
same,clearance,[6],7.09 mL/min/kg
same,AUC(0-t),[7],2330 ng·h/mL
same,C0,[8],1420 ng/mL
same,Vd,[9],1.87 L/kg
same,Kp at 1 h,[10],0.55
same,half-life,[11],12.2 min
same,microsomal CLint,[12],114 µL/min/mg
same,half-life,[13],9.95 min
same,microsomal CLint,[14],139 µL/min/mg
C[C@](O)(CN1CC2CCC(C1)N2c1cnc(C#N)nc1)C(=O)Nc1cnc(C#N)c(C(F)(F)F)c1,IC50,[1],15.8 µM
COc1c(C#N)ccc(NC(=O)[C@@](C)(O)CN2CC3CCC(C2)N3c2ccc(C#N)cc2)c1F,IC50,[1],5.3 µM
C[C@](O)(CN1CC2CCC(C1)N2c1cnc(C#N)nc1)C(=O)Nc1ccc(C#N)c(C(F)(F)F)c1,IC50,[1],5.24 µM
C[C@](O)(CN1CC2CCC(C1)N2c1ccc(C#N)cc1)C(=O)Nc1cnc(C#N)c(Cl)c1,IC50,[1],1.68 µM
same,half-life,[5],96.6 min
same,clearance,[6],16.2 mL/min/kg
same,AUC(0-t),[7],1030 ng·h/mL
same,C0,[8],1140 ng/mL
same,Vd,[9],1.42 L/kg
same,Kp at 1 h,[10],0.33
C[C@](O)(CN1CC2CCC(C1)N2c1ccc(F)cc1)C(=O)Nc1ccc(C#N)c(C(F)(F)F)c1,IC50,[1],12.9 µM
C[C@](O)(CN1CC2CCC(C1)N2c1ncc(C#N)cn1)C(=O)Nc1ccc(C#N)c(C(F)(F)F)c1,IC50,[1],4.05 µM
COc1cc(NC(=O)[C@@](C)(O)CN2CC3CCC(C2)N3c2ccc(C#N)cc2)ccc1C#N,IC50,[1],2.23 µM
C[C@]12CC[C@H](O)CC1=CC[C@@H]1[C@@H]2CC[C@]2(C)C(n3cnc4ccccc43)=CC[C@@H]12 [GALETERONE],IC50,[1],12 µM
COc1cc(C#N)ccc1N1C2CCC1CN(C[C@](C)(O)C(=O)Nc1ccc(C#N)c(C(F)(F)F)c1)C2,IC50,[1],4.12 µM
C[C@](O)(CN1CC2CCC(C1)N2Cc1ccc(C#N)cc1)C(=O)Nc1ccc(C#N)c(C(F)(F)F)c1,IC50,[1],20.5 µM
Cc1cc(C#N)ccc1N1C2CCC1CN(C[C@](C)(O)C(=O)Nc1ccc(C#N)c(C(F)(F)F)c1)C2,IC50,[1],3.08 µM
C[C@](O)(CN1CC2CCC(C1)N2c1ccc(C#N)cc1)C(=O)Nc1ccc([N+](=O)[O-])c(C(F)(F)F)c1,IC50,[1],1.65 µM
N#Cc1ccc(O[C@H]2CC[C@H](NC(=O)c3ccc(N4CCC(CN5CCN(c6cc7c(cc6F)C(=O)N(C6CCC(=O)NC6=O)C7=O)CC5)CC4)nn3)CC2)cc1Cl (some centres not stated) [BAVDEGALUTAMIDE],IC50,[1],> 100 µM
C[C@](O)(Cn1ccc2cc(F)ccc21)C(=O)Nc1ccc(C#N)c(C(F)(F)F)c1,IC50,[1],3.53 µM
CC(O)c1cc(C(=O)N[C@@H](C)Cn2ccc(-c3ccc(C#N)c(Cl)c3)n2)n[nH]1 (some centres not stated) [DAROLUTAMIDE],IC50,[1],31.2 µM
